Source: PubChem BioAssay AID743394 (Broad Institute, 2014)
Activity calls are given as the source filed them.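 How the source made its calls: active means 40% activation versus positive control reached by fitted dose-response curve at or below highest valid tested dose; inconclusive means poor fit quality, or flat fit with activation between 30% and 70%; inactive means the rest.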

Assay: inactive X chromosome reactivation in XiGFP fibroblasts, dose response, imaging, 68-5-11 mouse fibroblasts, GFP, cherry-pick (AID 743394);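 further: sensitizer 5-aza-dC present in the wells at 0.5 mM final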
Details: 68-5-11 mouse fibroblast XiGFP reporter, % GFP-positive imaging, 3 d; at 19.5 µM (top of the series)

Structure (SMILES)	activation
C=CCn1c(O)c(C(C)=NCc2ccc3c(c2)OCO3)c(=O)[nH]c1=O	0.026% (inactive)

Same assay, conditions: 68-5-11 mouse fibroblast XiGFP reporter, % GFP-positive imaging, 3 d; at 19.5 µM (top of the series); cells co-treated with 5-aza-dC sensitizer; scaled: neutral wells 0, ellipticine wells 100

Structure (SMILES)	activation
CCCCCCCCN1C(=O)[C@H](CC(=O)N2CCSCC2)C[C@@]2(C(=O)OCC)CCCC=C12	0.117% (inactive)
COc1ccc(COc2ccccc2C(=O)NCc2ccccc2)cc1F	-0.07% (inactive)
O=C(C[C@@H]1C[C@@H]2c3cc(NC(=O)C4CCC4)ccc3O[C@@H]2[C@@H](CO)O1)NCc1ccc(Cl)cc1	0.899% (inactive)
O=c1[nH]c(=O)n([C@H]2C[C@H](O)[C@@H](CO)O2)cc1C(F)(F)F	-0.032% (inactive)
NNC(=O)/C(=C\c1ccc(Br)cc1)NC(=O)c1cccs1	-0.053% (inactive)
CC(NC(=O)c1ccccc1)C(=O)N/N=C/c1ccccc1 (stereo unspecified)	0.535% (inactive)
COc1ccc(NC(=O)Nc2ccc3c(c2)C(=O)N([C@@H](C)CO)C[C@H](C)[C@@H](CN(C)S(=O)(=O)c2ccc(OC)cc2)O3)cc1	0.014% (inactive)
Nc1[nH]c(=O)nc(Nc2ccccc2)c1N=O	-0.037% (inactive)
CC(C)c1ccc(N2C(=O)/C(=C/N(C)C)SC2=S)cc1	0.088% (inactive)
COc1ccccc1NC(=O)N[C@H]1C=C[C@@H](CC(=O)N[C@@H](C)c2ccccc2)O[C@@H]1CO	-0.011% (inactive)
CNC(=O)C[C@H]1C(=O)N(c2ccccc2)C[C@@H]1C	0.464% (inactive)
Nc1c(-c2ccccc2)c(CN2CCOCC2)nn1-c1ccc(C(=O)O)cc1	-0.014% (inactive)
CC[C@]12c3[nH]c4cc(CCC(=O)N(C)C)ccc4c3CCN1C(=O)[C@@H](CC(=O)NCCC1=CCCCC1)C[C@@H]2C(=O)N1CCN(C(=O)c2ccco2)CC1	0.011% (inactive)
COc1ccc(N(C)S(=O)(=O)c2cccc(C(=O)NCC(c3cccs3)N(C)C)c2)cc1 (stereo unspecified)	0.036% (inactive)
O=C1CCCC(O)=C1Sc1cc(Cl)c(Cl)cc1Cl	0.118% (inactive)
Cc1noc(C)c1NC(=O)N[C@H]1CC[C@H](CC(=O)N2CCN(C)CC2)O[C@H]1CO	0.116% (inactive)
COC(=O)c1ccc(CNC(=O)COC(=O)c2cc(Cl)ccc2O)cc1	0.385% (inactive)
COc1cccc(-c2ccc(C3[C@@H]4CN(C(=O)C5CCCCC5)C[C@H]3N4)cc2)c1 (stereo partly specified)	2.76% (inactive)
COc1ccccc1/C=C/C(=O)OCCCN(C)C	0.018% (inactive)
CCOC(=O)c1ccccc1NC(=O)COC(=O)C1CCN(S(=O)(=O)c2ccccc2C(=O)OC)CC1	1.06% (inactive)
COC(=O)c1c(NC(=O)c2ccccc2)sc2c1CC(C)(C)NC2(C)C	0.021% (inactive)

Structure (SMILES)	activation
Cc1ccc(Cn2cc(/C=N/Nc3ccc([N+](=O)[O-])cn3)c3ccccc32)cc1	1.53% (inactive)
CC(=O)c1cccc(-c2ccc3c(c2)C(C)(Cc2ccc(S(C)(=O)=O)cc2)C(=O)N3)c1 (stereo unspecified)	-0.032% (inactive)
CC(=O)N(C)C[C@@H]1Oc2ncc(-c3cccnc3)cc2C(=O)N([C@@H](C)CO)C[C@@H]1C	0.082% (inactive)
CC(C)OC(=O)/C(=C\c1cccnc1)NC(=O)c1ccccc1	-0.024% (inactive)
N#Cc1ccccc1Cn1cc(/C=N/Nc2ccc([N+](=O)[O-])cn2)c2ccccc21	10.9% (inactive)
COc1ccc2c3c(n(C)c2c1)[C@H](CO)N(Cc1ccccc1F)CC31CCN(CC2CC2)CC1	0.046% (inactive)
O=C(NC1=NN(c2ccccc2)CC1)Nc1ccccc1F	-0.003% (inactive)
O=C(Nc1ccccc1N1CCCCC1)c1cnccn1	-0.052% (inactive)
CC(C)Oc1ccc(/C(O)=C2/C(=O)C(=O)N(CCN(C)C)C2c2cccs2)cc1 (stereo unspecified)	0.063% (inactive)
COc1ccc(N2C(=O)C3CCCN3C2c2cccc(OC)c2)cc1 (stereo unspecified)	0.02% (inactive)
CO[C@@H]1CN(C)C(=O)c2ccc(NC(=O)Nc3cccc(Cl)c3)cc2OC[C@H](C)N(C(=O)Nc2c(C)noc2C)C[C@H]1C	-0.002% (inactive)
COc1cc(CN2CCC(C(=O)NCC(C)(C)CN(C)C)CC2)ccc1OCc1ccccc1	-0.029% (inactive)
Oc1ccc(Br)cc1C=Nc1ccc2c3c(cccc13)CC2	0.056% (inactive)
OC[C@@H]1Nc2ccc(C#Cc3ccccc3)cc2[C@H]2[C@@H]1CCN2Cc1nccs1	0.161% (inactive)
N#CC(C#N)=C1C=CC=CN1/C(=C\c1ccco1)C(=O)c1ccc(Br)cc1	8.49% (inactive)
CCc1ccc(N2CC(C(=O)Nc3cc(C)on3)CC2=O)cc1 (stereo unspecified)	-0.034% (inactive)
NS(=O)(=O)c1cccc(-n2cnnn2)c1	0.065% (inactive)
Cc1cccc(C(=O)NCc2ccc(S(N)(=O)=O)cc2)c1[N+](=O)[O-]	0.077% (inactive)
CCC1Oc2ccc(C)cc2N(CC(=O)N2CCCC2)C1=O (stereo unspecified)	0.113% (inactive)
CC(=NNC(=S)Nc1cccc(Cl)c1)c1ccccn1	-0.035% (inactive)
CC(O)CN(CC(C)O)c1ccc2c(c1)Cc1cc([N+](=O)[O-])ccc1-2 (stereo unspecified)	11.6% (inactive)

Structure (SMILES)	activation
O=C(COC(=O)/C=C/c1cccc(C(F)(F)F)c1)NC(=O)NCc1ccco1	-0.07% (inactive)
Cc1ccc(-c2nc3ccc(Br)cn3c2Cc2ccccc2C(F)(F)F)cc1	0.06% (inactive)
C/C=C/Cn1c(SCCCc2ccccc2)nc2c1c(=O)[nH]c(=O)n2C	-0.024% (inactive)
CC(=O)c1c(COC(=O)c2ccccc2Cl)nc2ccccc2[n+]1[O-]	0.188% (inactive)
COc1cccc(NC(=O)N(C)C[C@@H]2Oc3cc(Br)ccc3S(=O)(=O)N([C@@H](C)CO)C[C@H]2C)c1	-0.016% (inactive)
Cc1ccc(-c2csc(NC(=O)c3cccc([N+](=O)[O-])c3C(=O)O)n2)cc1	-0.047% (inactive)
Cc1nn(-c2ccccc2)c2ncc(C(=O)c3cc(Cl)ccc3O)cc12	0.1% (inactive)
O=c1c(Cl)c(Cl)cnn1Cc1nnc(-c2ccccc2Br)o1	-0.053% (inactive)
CCOC(=O)N1CCN(Cc2cc(Cl)c3cccnc3c2O)CC1	-0.05% (inactive)
Cc1ccsc1C1Nc2ccccc2-c2nc3ccccc3n21 (stereo unspecified)	-0.047% (inactive)
CC(=O)Nc1sc(N/N=C/c2ccc(N(C)C)cc2)nc1-c1ccc(C)cc1	0.052% (inactive)
CC1CN(C(=O)/C=C/c2ccc([N+](=O)[O-])s2)CC(C)O1 (stereo unspecified)	-0.075% (inactive)
CC1CC(C)CN(C(=O)C(C)N2CCN(S(=O)(=O)c3ccccc3F)CC2)C1 (stereo unspecified)	0.412% (inactive)
COc1ccc(OC)c(/C=C/c2ccc3cccc(O)c3n2)c1	-0.024% (inactive)
CC(C)OC(=O)CC(=O)CSc1nc(-c2ccc(F)cc2)cc(-c2ccccc2)c1C#N	0.769% (inactive)
CCN1C(=O)C(=Cc2cccc(OC)c2Oc2ccc([N+](=O)[O-])cc2[N+](=O)[O-])SC1=S	-0.008% (inactive)
O=C(NNC(=O)c1cc2ccccc2o1)c1ccc(Cl)cc1	0.006% (inactive)
COc1ccc(-n2ncc(Cl)c(Cl)c2=O)cc1	-0.032% (inactive)
CCc1ccc(C(=O)NNc2ccc(S(N)(=O)=O)cc2)cc1	-0.007% (inactive)
COC(=O)C(C(C)C)N1CCc2c(C)nc3c(C#N)cnn3c21 (stereo unspecified)	0.052% (inactive)
CN(C)S(=O)(=O)c1cccc(C(=O)NCC2(N3CCOCC3)CCCCC2)c1	-0.002% (inactive)

Structure (SMILES)	activation
O=CNc1ccc2c(c1)Cc1cc([N+](=O)[O-])ccc1-2	0.191% (inactive)
Cc1noc(C)c1S(=O)(=O)Nc1ccc2c(c1)C(=O)N([C@H](C)CO)C[C@H](C)[C@H](CN(C)C(=O)Nc1ccc(F)cc1)OCCCC[C@H](C)O2	0.022% (inactive)
COc1ccc(/C=C2\CCc3ccccc3C2=O)cc1CN1CCOCC1	0.231% (inactive)
CC1CN(Cc2c(O)ccc3c2oc(=O)c2ccccc23)CC(C)O1 (stereo unspecified)	-0.012% (inactive)
COc1ccccc1NC(=S)N(CCCN1CCOCC1)Cc1cccs1	-0.076% (inactive)
COc1cccc(CNC(=O)CNC(=S)N(Cc2ccccc2)Cc2ccccc2F)c1	-0.015% (inactive)
COc1ccc(NS(=O)(=O)c2ccc(NC(C)=O)cc2)nn1	0.042% (inactive)
O=C(N/N=C/c1ccc(Br)s1)c1ccc([N+](=O)[O-])cc1	1.59% (inactive)
CC1CC(C)CN(C(=O)CSCC(=O)Nc2nc(-c3cccs3)cs2)C1 (stereo unspecified)	-0.047% (inactive)
CCOC(=O)c1c(C)[nH]c(N=Nc2ccc(OC)cc2)c1C	1.01% (inactive)
COc1cc(NC(C)CCc2ccccc2)cc(OC)c1OC (stereo unspecified)	-0.035% (inactive)
CN(C)C=NC(=O)c1cc(C(=O)c2ccc(Cl)cc2Cl)c[nH]1	-0.032% (inactive)
COc1ccc(N2CCN(C(CNC(=O)c3ccc4c(c3)OCO4)c3ccco3)CC2)cc1 (stereo unspecified)	-0.08% (inactive)
CCCCOc1nc2ccccc2nc1NS(=O)(=O)c1ccc(F)cc1	0.851% (inactive)
CCCN(C)C[C@@H]1OCc2cnnn2CCCC(=O)N([C@H](C)CO)C[C@H]1C	1.19% (inactive)
COc1ccc(C2=NOC3(CC(=O)N(c4ccc(F)cc4)C3=O)C2)cc1 (stereo unspecified)	0.015% (inactive)
CCCNC(=O)N1CC2(CN(S(C)(=O)=O)C2)c2c(n(C)c3cc(OC)ccc23)[C@H]1CO	0.016% (inactive)
COc1ccc(-n2c(=O)n(Cc3ccccc3)c(=O)c3[nH]cnc32)cc1	-0.053% (inactive)
COc1ccc2nc(SCC(=O)Nc3ccccc3OC)[nH]c2c1	-0.024% (inactive)
CN(Cc1nccn1C)C(=O)CC1C(=O)NCCN1CC(c1ccccc1)c1ccccc1 (stereo unspecified)	0.001% (inactive)
CO[C@H]1CN(C)C(=O)c2ccc(NC(=O)Cc3ccccc3)cc2OC[C@@H](C)N(C)C[C@H]1C	-0.035% (inactive)

Same assay, conditions: 68-5-11 mouse fibroblast XiGFP reporter, % GFP-positive imaging, 3 d; at 21 µM (top of the series); cells co-treated with 5-aza-dC sensitizer; scaled: neutral wells 0, ellipticine wells 100

Structure (SMILES)	activation
COc1ccc(S(=O)(=O)N(C)C[C@@H]2OCc3cn(nn3)CCCC(=O)N([C@@H](C)CO)C[C@@H]2C)cc1	0.05% (inactive)
